Among the test systems are M19-MEL melanoma; P388 leukemia; SK-MEL-28 melanoma; MDA-N; BT-549 breast; HS 578T breast; ACHN renal; MDA-MB-231 breast; DU-145 prostate; PC-3 prostate; MDA-MB-435; T-47D breast.
Holding throughout (experiment): NCI tumour cell line growth inhibition, 48 h

These results are taken from PubChem BioAssay (NCI).

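48-hour exposure; five concentrations; linearly interpolated endpoints. GI50 marks 50% less growth. The concentration for full growth arrest is given as TGI.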

As for `Oc1c(Br)cc2c(c1Br)-c1c(c(O)c3c4c1=NCCC=4C=N3)NCC2`, the TGI in the assay on M19-MEL melanoma is 8.82 µM; in the assay with P388 leukemia, more than 22.2 µM; in the assay with SK-MEL-28 melanoma, 32.5 µM.

Turning to `N#C[S-].[La+3].c1ccc(-c2ccccn2)nc1.c1ccc(-c2ccccn2)nc1.c1ccc(-c2ccccn2)nc1`, in the assay with M19-MEL melanoma, the GI50 is 38 µM and the TGI is more than 100 µM. In the assay with SK-MEL-28 melanoma, the GI50 is 30.9 µM and the TGI is more than 100 µM.

`Brc1ccc2[nH]c3c(C4=NCCC4)nccc3c2c1`: the TGI in the assay on M19-MEL melanoma is 84.4 µM; with P388 leukemia, more than 21.7 µM; in the assay on SK-MEL-28 melanoma, more than 100 µM.

For the molecule `Clc1cc(N/N=C(\c2ccccc2)c2ccccn2)ncn1`, the TGI in the assay on MDA-N is more than 100 µM; in the assay on BT-549 breast, more than 100 µM; with HS 578T breast, more than 100 µM; in the assay on ACHN renal, more than 100 µM; in the assay with MDA-MB-231 breast, 0.0669 µM; in the assay with DU-145 prostate, more than 100 µM. The TGI with PC-3 prostate is more than 100 µM; with MDA-MB-435 it was more than 100 µM; in the assay on SK-MEL-28 melanoma it was more than 100 µM; in the assay with T-47D breast it was 45.2 µM.

`Cc1c2cc[n+](Cc3ccc(I)cc3)cc2c(C)c2c1[nH]c1ccccc12`: the TGI worked out at 1.49 µM in the assay on M19-MEL melanoma, 0.558 µM in the assay with P388 leukemia and 11.7 µM in the assay with SK-MEL-28 melanoma.

As to `O=c1cc(-c2cccc(OC(F)(F)F)c2)[nH]c2ccc(N3CCCC3)cc12`, the TGI is 86.2 µM in the assay with HS 578T breast; 51.3 µM in the assay with ACHN renal; 0.177 µM in the assay with DU-145 prostate; less than 0.0001 µM with MDA-MB-435; more than 100 µM in the assay on T-47D breast.
